Tests used:
[1] = clinical; assay type: in vivo, human; conditions: human, in vivo; for AUC(0-t): AUC(0-last)
Protocol: (§1) • Protocol AMX3500: sparse sampling in 87 subjects with ALS. Approximately 2 samples are collected for each subject, 1 or 4 hours post dose following 12 and 24 weeks of treatment. • Protocol A35-002: rich sampling in 14 healthy adults. Approximately 21 samples are collected over 24 hours for each subject on two occasions, once following a high fat meal and the other under fasting conditions.
A total of 14 healthy subjects were enrolled in order to have no fewer than 12 subjects complete. A predefined mix of gender was selected.
Each study period followed the same study design (FIG. 1). Subjects were screened for inclusion in the study up to 28 days before dosing. Subjects were admitted to the clinical unit during Study Day −2 for Period 1 and Day −1 for Period 2 and were dosed in the morning of Day 1. On the night prior to Period 1 the subjects in the fasted/fed or fed/fasted sequence were fasted for a minimum of 10 h prior to dosing.
The solution was stirred until the powder was mostly dissolved.
Any departures from the intended regimen were recorded in the eCRFs. All dose administrations were performed in the study center under the supervision of appropriately trained staff.
Subjects were provided with a light snack and were then fasted from all food and drink (except water) until the following morning, when they were provided with a high-fat breakfast. The breakfast was consumed over a maximum period of 25 min, and dosing occurred 30 min after the start of breakfast. Subjects were encouraged to eat their meal evenly over the 25 min period. For this trial the subject was deemed compliant if they consumed >80% of the high-fat standard breakfast.
The subjects in the 24-h baseline and in the fasted condition Period remained fasted up to 4 h post-dose and were offered a standardized meal to be taken between 4.00 and 5.00 h post-dose. Subjects in the fed condition were fasted overnight and received a high-fat standard breakfast 30 minutes pre-dose and then remained fasted for 4.00 to 5.00 h post-dose when they received a standardized meal.
Venous blood samples were withdrawn via an indwelling cannula or by venipuncture according to the time schedule presented in Table 5 Table, Table 6, and Table 7.
Blood samples of approximately 4 mL were collected into 4 mL BD Vacutainer Plastic K2EDTA Tubes with Lavender Hemogard Closure, and was gently inverted approximately 8 times. The tubes were then immediately stored on ice and processed within 60 min of collection by centrifugation at 1500 g for 10 min at 2 to 8° C. The resultant plasma was separated equally into 2 aliquots and transferred to 2 mL appropriately labelled primary and backup polypropylene cryovials.
Actual elapsed time from dosing was to be used for the final plasma PK parameter calculations after database lock.

[2] = clinical; assay type: in vivo, human; conditions: human, in vivo; for concentration at 1 h / concentration at 4 h: both sexes
Protocol: • 1. […] Treatment is administered as one sachet daily for the initial 3 weeks and then increased if tolerated to one sachet twice daily. […] Sampling times are randomly assigned to occur at either 1 or 4 hours post-dose at the 12 week visit and the other time at the 24 week visit. • Treatment duration: 24 weeks • 2.
as §1
Subjects were advised to take the drug before a meal. […] Referred to as protocol 3500.
A study was carried out to examine plasma concentration data in various subgroups for the protocol AMX3500 Phase 2 study. This example summarizes plasma concentrations of TUDCA and 2 metabolites, also related acids, UDCA, the de-conjugated TUDCA metabolite, and GUDCA, the glycine conjugate of UDCA.
For each of the 2 treatment arms (treatment and placebo), subjects were further divided into 2 sample sequence groups for schedule of pharmacokinetic measurements: • 1. 1 hour post-dose for the Week 12 visit and 4 hours post-dose for the Week 24 visit • 2. 4 hours post-dose for the Week 12 visit and 1 hour post-dose for the Week 24 visit
Twenty-four distinct medication descriptions were identified as containing antibiotics. Dates of antibiotic use were compared to dates of visits and if the antibiotic use date range contained the visit date, then that visit was flagged for that subject's data for antibiotic use. […] These antibiotics could hypothetically be in a subject's body still if this event occurred. However, it was observed that only a small number of subjects took antibiotics near to visit dates but not overlapping visit dates. In other cases, subjects were taking antibiotics on the date of one visit but not the others. Some subjects are therefore in both categories of antibiotic use and nonuse, though no individual visits for a subject are counted in both categories at the same time.
Subjects whose race were recorded as “Black” or “African American” were evaluated according to the standard Glomerular Filtration Rate (eGFR) rating for that race. The other standard eGFR rating used, sometimes referred to as a standard for people who are White, was applied to subjects of all other races. These rates were analyzed as continuous in mL/min/1.73 m2 units and as the following categories: • 1. Less than 90 mL/min/1.73 m^2 • 2. Equal to or greater than 90 mL/min/1.73 m^2
Age was converted from a continuous variable to 2 categories: • 1. As old or older than 65 years old • 2. Younger than 65 years old
All boxplots boxes are bounded at the 25th and 75th percentile, with whiskers at 10th and 90th percentiles, outliers beyond that as points, the black line as median, and red line as mean.

[3] = Steady-state plasma concentration

Structure (SMILES): C[C@H](CCC(=O)NCC(=O)O)[C@H]1CC[C@H]2[C@@H]3[C@@H](O)C[C@@H]4C[C@H](O)CC[C@]4(C)[C@H]3CC[C@]12C [GUDCA, glycoursodeoxycholic acid]
- Tmax ([1]; both sexes, Tmax Median): 16 h
- AUC(0-t) ([1]; both sexes, po, Geometric Mean): 4140 ng·h/mL
- Cmax ([1]; both sexes, po): 381 ng/mL
- Cmax ([1]; both sexes, po, Geometric Mean): 381 ng/mL
- half-life ([1]; both sexes, po, T1/2, Geometric Mean): 12.7 h
- AUC(0-last) Ratio of adj geo means Fed/Fasted (GMR) ([1]; both): 137.31%
- AUG(0-last) ([1]; both): 5060 (88.2) ng.h/ml
- Cmax Ratio of adj geo means Fed/Fasted (GMR) ([1]; both): 134.45%
- MR Cmax (metabolite to parent ratio) ([1]; both): 0.571
- T1/2 ([1]; both): 12.744 h
- increase in AUC(0-last), fed relative to fasted ([1]; both): ~37%
- peak exposure to metabolite as % of that for parent ([1]; both): approximately 51%
- time of maximum plasma concentrations (range) ([1]; both): 6.00 to 20.00 h
- total exposure to metabolite based on AUC(0-last) as % of that for parent ([1]; both): approximately 95%
- AUC(0-last), Adj Geo Mean ([1]; both, po): 4200 ng·h/mL
- AUC(0-last), Max ([1]; both, po): 12000 ng·h/mL
- AUC(0-last), Median ([1]; both, po): 3400 ng·h/mL
- AUC(0-last), Min ([1]; both, po): 1840 ng·h/mL
- AUC(0-last), Ratio of adj geo means Fed/Fasted ([1]; both, po): 137.31%
- Cmax, Adj Geo Mean ([1]; both, po): 382 ng/mL
- Cmax, Max ([1]; both, po): 1420 ng/mL
- Cmax, Median ([1]; both, po): 353 ng/mL
- Cmax, Min ([1]; both, po): 143 ng/mL
- Cmax, Ratio of adj geo means Fed/Fasted ([1]; both, po): 134.45%
- Lambda-z, Geometric Mean ([1]; both, po): 0.0543 h⁻¹
- Lambda-z, Max ([1]; both, po): 0.0544 h⁻¹
- Lambda-z, Median ([1]; both, po): 0.0543 h⁻¹
- Lambda-z, Min ([1]; both, po): 0.0544 h⁻¹
- T1/2, Max ([1]; both, po): 12.74 h
- T1/2, Median ([1]; both, po): 12.744 h
- T1/2, Min ([1]; both, po): 12.74 h
- Tmax, Max ([1]; both, po): 20.00 h
- Tmax, Min ([1]; both, po): 6.00 h
- MR AUC(0-last) [1]: 1.056
- concentration at 1 h ([2]; Plasma Concentration, Mean): 1020 ng/mL
- concentration at 4 h ([2]; Plasma Concentration, Mean): 1510 ng/mL
- concentration at 1 h ([2]; Plasma Concentration, Median): 773 ng/mL
- concentration at 4 h ([2]; Plasma Concentration, Median): 1500 ng/mL
- concentration at 1 h [2, 3]: 1070 ng/mL
- concentration at 4 h [2, 3]: 1320 ng/mL
- steady state reached by ([2]; both): ≤ 12 Week
- Plasma Concentration, Median ([2]; both, 1 h): 815.0 ng/mL
- Plasma Concentration, Median ([2]; both, 4 h): 1190.0 ng/mL
- Plasma Concentration, Min ([2]; both, 4 h): 20.0 ng/mL
- accumulation in plasma after once- or twice-daily dosing [2]: substantial accumulation
- effect of age on steady-state plasma concentration [2]: no difference
- effect of mild renal insufficiency on steady-state plasma concentration [2]: no discernible difference
- steady-state plasma concentrations versus endogenous levels [2]: at least an order of magnitude higher than endogenous levels

Structure (SMILES): C[C@H](CCC(=O)O)[C@H]1CC[C@H]2[C@@H]3[C@@H](O)C[C@@H]4C[C@H](O)CC[C@]4(C)[C@H]3CC[C@]12C [UDCA, ursodeoxycholic acid]
- AUC(0-inf) ([1]; both sexes, AUC(0-inf)): 11300 ng·h/mL
- AUC(0-t) ([1]; both sexes): 5540 ng·h/mL
- Cmax ([1]; both sexes): 639 ng/mL
- half-life ([1]; both sexes, elimination half-lives (range)): 3.01 to 7.58 h
- Cmax ([1]; both sexes, po): 639 ng/mL
- AUC(0-inf) ([1]; both): 11300 ng·h/mL
- AUC(0-last) Ratio of adj geo means Fed/Fasted (GMR) ([1]; both): 136.34%
- AUG(0-last) ([1]; both): 5540 (72.5) ng.h/ml
- Cmax Ratio of adj geo means Fed/Fasted (GMR) ([1]; both): 112.17%
- Tmax Median ([1]; both): 6.000 h
- increase in AUC(0-last), fed relative to fasted ([1]; both): ~36%
- increase in Cmax, fed relative to fasted ([1]; both): approximately 12%
- peak exposure to metabolite as % of that for parent ([1]; both): approximately 86%
- time of maximum plasma concentrations (range) ([1]; both): 0.25 to 20.00 h
- total exposure to metabolite based on AUC(0-last) as % of that for parent ([1]; both): approximately 127%
- AUC(0-last), Adj Geo Mean ([1]; both, po): 5530 ng·h/mL
- AUC(0-last), Ratio of adj geo means Fed/Fasted ([1]; both, po): 136.34%
- Cmax, Adj Geo Mean ([1]; both, po): 635 ng/mL
- Cmax, Ratio of adj geo means Fed/Fasted ([1]; both, po): 112.17%
- Tmax Median ([1]; both, po): 6.000 h
- concentration at 1 h ([2]; Plasma Concentration, Mean): 1080 ng/mL
- concentration at 4 h ([2]; Plasma Concentration, Mean): 1300 ng/mL
- concentration at 1 h ([2]; Plasma Concentration, Median): 592 ng/mL
- concentration at 4 h ([2]; Plasma Concentration, Median): 920 ng/mL
- concentration at 1 h [2, 3]: 910 ng/mL
- concentration at 4 h [2, 3]: 1170 ng/mL
- Plasma Concentration, Min ([2]; both): 20.0 ng/mL
- Plasma Concentration, Q1 ([2]; both): 20.0 ng/mL
- steady state reached by ([2]; both): ≤ 12 Week
- Plasma Concentration, Mean ([2]; both, 1 h): 909.9 ng/mL
- Plasma Concentration, Median ([2]; both, 1 h): 614.0 ng/mL
- Plasma Concentration, Min ([2]; both, 4 h): 20.0 ng/mL
- accumulation in plasma after once- or twice-daily dosing [2]: substantial accumulation
- effect of age on steady-state plasma concentration [2]: no difference
- effect of mild renal insufficiency on steady-state plasma concentration [2]: no discernible difference
- steady-state plasma concentrations versus endogenous levels [2]: at least an order of magnitude higher than endogenous levels

Reference: patent US20230372263A1, “METHODS AND COMPOSITIONS FOR TREATING AMYOTROPHIC LATERAL SCLEROSIS” (Amylyx Pharmaceuticals, Inc., priority 2022, published 2023)
